Results as given in US7893046B2, “Therapeutic or prophylactic agent for leukemia” (Toray Industries, Inc., priority 2006, dated 2011).

Experiments:
Format in all cases: in vivo
[1] = test system: mouse leukemia cell line 1629B; assay: Mouse leukemia model, survival rate and leukocytes in peripheral blood, dosing from the time of 1629B cell transfer; conditions: SCID mice, 100 mg/kg orally every day from 1629B transfer
Method: This method was carried out in accordance with the literature “Cancer Cell., 4, 55-65 (2003)”. Cells of mouse leukemia cell line 1629B were transferred into 8- or 9-week-old female SCID mice (CLEA Japan, Inc.) to develop leukemia. The compounds described in Examples 80, 81 and 83 were orally administered, respectively, at a dose of 100 mg/kg every day from the time when 1629B cells were transferred.

[2] = test system: leukemia cells (1629B cells) in bone marrow; assay: Proliferation of leukemia cells in bone marrow in mouse leukemia model (PCR of neomycin resistance gene)
Method: Neomycin resistance gene, a marker gene for 1629B cells, was used as an index of leukemia cells (1629B cells) in bone marrow and the gene level was determined, thereby detecting the number of leukemia cells in bone marrow.
For the amplification of neomycin resistance gene, primers were prepared and PCR (reaction condition: 32 cycles of 95° C. for 30 sec, 60° C. for 30 sec, and 72° C. for 1 min) was performed using DNA extracted from bone marrow cells as a template. After the reaction, the image of PCR bands was analyzed using Gel-Pro Analyzer (MediaCybernetics).

[3] = test system: mouse leukemia cell line 1629B; assay: Mouse leukemia model, survival time and leukocytes in peripheral blood, dosing from Day 21 after transfer of 1629B cells; conditions: SCID mice, 100 mg/kg orally every day from Day 21 after transfer; for reduction ratio of increase in the number of leukocytes in peripheral blood: Day 35 after the transfer; for survival time prolonged to (Day after the transfer of leukemia cells): untreated mice died on Day 36
Method: This method was carried out in accordance with the literature “Cancer Cell., 4, 55-65 (2003)”.
Cells of mouse leukemia cell line 1629B were transferred into 8-week-old female SCID mice (CLEA Japan, Inc.) to develop leukemia. The compounds described in Examples 77, 78 and 84 were orally administered, respectively, at a dose of 100 mg/kg every day from Day 21 after the transfer of 1629B cells.

[4] = Day 43 after the transfer of leukemia cells
[5] = leukemia mice of Example 88 (100 mg/kg orally from the time of transfer)
[6] = leukemia mice of Example 89 (100 mg/kg orally from Day 21 after transfer)

SMILES	reduction ratio of increase in the number of leukocytes in peripheral blood ([1]; Day 43 after the transfer) [%]	survival rate [1, 4] [%]	reduction ratio of increase in the number of leukemia cells in bone marrow [2, 5] [%]	reduction ratio of increase in the number of leukocytes in peripheral blood [3] [%]	survival time prolonged to (Day after the transfer of leukemia cells) [3] [days]	reduction ratio of increase in the number of leukemia cells in bone marrow [2, 6] [%]	reduction ratio of increase in the number of leukocytes in peripheral blood ([1]; Day 51 after the transfer) [%]	survival rate ([1]; Day 51 after the transfer of leukemia cells) [%]
CC(C)N(c1ccc(/C=C/C[C@H](NC(=O)c2c(Cl)cccc2Cl)C(=O)O)cc1)c1ncccn1 [Example 83, (S,E)-2-(2,6-Dichlorobenzamido)-5-[4-(isopropyl-pyrimidin-2-ylamino)phenyl]pent-4-enoic Acid]	53.1	75.0	46.1	–	–	–	–	–
CC(C)N(c1ccc(/C=C/C[C@H](NC(=O)c2c(Cl)cccc2Cl)C(=O)[O-])cc1)c1ncccn1.[Na+] [Example 84, (S,E)-2-(2,6-Dichlorobenzamido)-5-[4-(isopropyl-pyrimidin-2-ylamino)phenyl]pent-4-enoic Acid Sodium Salt]	–	–	–	49.8	43	45.6	–	–
COC1(c2ccc(/C=C/C[C@H](NC(=O)c3c(Cl)cccc3Cl)C(=O)O)cc2)CCOCC1 [Example 77, (S,E)-2-(2,6-Dichlorobenzamido)-5-[4-(4-methoxytetrahydropyran-4-yl)-phenyl]pent-4-enoic Acid]	–	–	–	41.2	43	49.3	–	–
COC1(c2ccc(/C=C/C[C@H](NC(=O)c3c(Cl)cccc3Cl)C(=O)[O-])cc2)CCOCC1.[Na+] [Example 78, (S,E)-2-(2,6-Dichlorobenzamido)-5-[4-(4-methoxytetrahydropyran-4-yl)-phenyl]pent-4-enoic Acid Sodium Salt]	–	–	–	41.0	43	41.7	–	–
CN(c1ccc(/C=C/C[C@H](NC(=O)c2c(Cl)cccc2Cl)C(=O)[O-])cc1)c1ncccn1.[Na+] [Example 81, (S,E)-2-(2,6-Dichlorobenzamido)-5-[4-(methyl-pyrimidin-2-ylamino)phenyl]pent-4-enoic Acid Sodium Salt]	–	–	50.8	–	–	–	60.8	62.5
CN(c1ccc(/C=C/C[C@H](NC(=O)c2c(Cl)cccc2Cl)C(=O)O)cc1)c1ncccn1 [Example 80, (S,E)-2-(2,6-Dichlorobenzamido)-5-[4-(methyl-pyrimidin-2-ylamino)phenyl]pent-4-enoic Acid]	61.6	75.0	45.9	–	–	–	–	–
